Results from ChEMBL document CHEMBL4342505, “Achieving In Vivo Target Depletion through the Discovery and Optimization of Benzimidazolone BCL6 Degraders” (J Med Chem, 2020).
≈ marks a conversion by molar mass, not a printed value.

How the values were obtained:
[1] = Kinetic solubility in HEPES buffer containing 5% DMSO at pH 8 incubated for 20 hrs by NMR analysis; assay type: physicochemical; conditions: read-out: Kinetic_solubility
[2] = biological target: T1, B-cell lymphoma 6 protein (Homo sapiens, UniProt P41182)
Description: Inhibition of recombinant His-tagged human BCL6 expressed in Escherichia coli BL21 AI cell incubated for 2 hrs by TR-FRET assay

[3] = biological target: T1, B-cell lymphoma 6 protein; remark: listed apart in the source
Description: Induction of BCL6 degradation in human SUDHL-4 cells incubated for 2 hrs by immunofluorescence analysis

[4] = Kinetic solubility in PBS buffer containing 1% DMSO at pH 7.4 incubated for 2 hrs by HPLC analysis; assay type: physicochemical; conditions: read-out: Kinetic_solubility
[5] = Metabolic stability in CD-1 mouse liver microsomes assessed as intrinsic clearance at 1 uM measured upt0 30 mins by LC-MS/MS analysis; assay type: ADME, Microsome; conditions: 0.5 h
BCL-6/NCOR2 = BCL-6/NCOR2 (Homo sapiens, UniProt P41182)
Description: Inhibition of recombinant human Nanoluc-tagged BCL6/Halo-tagged SMRT transfected in human HEK293T cells assessed as reduction in BCL6/SMRT interaction incubated for 6 hrs by NANOBRET assay

[6] = Lipophilicity, log D of compound at pH 7.4; assay type: physicochemical; conditions: buffer
[7] = Permeability of compound by PAMPA assay; assay type: ADME
OCI-Ly1 = assay: Antiproliferative activity agianst human OCI-LY1 cells assessed as growth inhibition incubated for 14 days by CellTiter Glo reagent based assay
[8] = biological target: T1, B-cell lymphoma 6 protein; assay: Induction of BCL6 degradation in human SUDHL-4 cells incubated for 4 hrs by Western blot analysis; assay type: cell-based
SUD4 = assay: Antiproliferative activity agianst human SUDHL4 cells assessed as growth inhibition incubated for 14 days by CellTiter Glo reagent based assay; assay type: functional; conditions: SU-DHL-4, […]
[9] = biological target: T1, B-cell lymphoma 6 protein; assay: Induction of BCL6 degradation in human OCI-LY1 cells incubated for 4 hrs by Western blot analysis; assay type: cell-based
OCI-Ly3 = assay: Antiproliferative activity agianst human OCI-LY3 cells assessed as growth inhibition incubated for 14 days by CellTiter Glo reagent based assay
[10] = biological target: T1, B-cell lymphoma 6 protein; conditions: oci-ly1
Description: Induction of BCL6 degradation in human OCI-LY1 cells incubated for 2 hrs by MSD electrochemiluminescent immunoassay

[11] = biological target: T1, B-cell lymphoma 6 protein; remark: listed apart in the source
Description: Induction of BCL6 degradation in human KARPAS422 cells incubated for 2 hrs by MSD electrochemiluminescent immunoassay

Structure (SMILES) | solubility kinetic at 20 h [1] [µM] | IC50 [2] [nM] | DC50 [3] [nM] | also measured
C[C@@H]1C[C@H](C)CN(c2cc(Nc3ccc4c(c3)n(CCC(C)(C)O)c(=O)n4C)c(Cl)cn2)C1 | 12 (≈ 5.66 µg/mL) | 3500 | 1800 | –
Cn1c(=O)n(CCC(C)(C)O)c2cc(Nc3ncnc(Cl)c3Cl)ccc21 | 344 (≈ 136 µg/mL) | 2100 | – | –
C[C@@H]1CN(c2ncc(Cl)c(Nc3ccc4c(c3)n(CCC(C)(C)O)c(=O)n4C)n2)C[C@H](C)O1 | < 30 | 150 | > 10000 | solubility kinetic at 2 h [4]: 95 µM (≈ 45.1 µg/mL); CLH [5]: 104 µL/min/mg; IC50 (BCL-6/NCOR2): 1760 nM
Cn1c(=O)n(CCC(C)(C)O)c2cc(Nc3nc(N4CCCC(C(F)(F)F)C4)ncc3Cl)ccc21 (centres undefined) | < 30 | 400 | 750 | logD [6]: 4.2; CLH [5]: 630 µL/min/mg
N#Cc1c(NCc2ccccc2)ccnc1Cl | 60 (≈ 14.6 µg/mL) | – | – | –
C[C@@H]1CN(c2ncc(Cl)c(Nc3ccc4c(c3)n(CCC(C)(C)O)c(=O)n4C)n2)C[C@H](C)N1C | 343 (≈ 167 µg/mL) | 190 | > 10000 | IC50 (BCL-6/NCOR2): 1550 nM
Cn1c(=O)n(CCC(C)(C)O)c2cc(Nc3nc(N4CCC(C(F)(F)F)CC4)ncc3Cl)ccc21 | 22 (≈ 11.3 µg/mL) | 960 | > 10000 | –
Cn1c(=O)n(CCC(C)(C)O)c2cc(Nc3ccnc(Cl)c3Cl)ccc21 | 251 (≈ 99.2 µg/mL) | 1400 | – | –
C[C@@H]1C[C@H](C)CN(c2ncc(Cl)c(Nc3ccc4c(c3)n(CCC(C)(C)O)c(=O)n4C)n2)C1 | < 30 | – | – | permeability [7]: 36 ×10⁻⁶ cm/s; GI50 (OCI-Ly1): 280 nM; Activity [8]: Dose-dependent effect; solubility kinetic at 2 h [4]: 6 µM (≈ 2.84 µg/mL); GI50 (SUD4): 350 nM; logD [6]: 4.7; CLH [5]: 2440 µL/min/mg; Activity [9]: Dose-dependent effect; GI50 (OCI-Ly3): 3100 nM
Cn1ccnc1-c1ncc(Cl)c(Nc2ccc3c(c2)n(CCC(C)(C)O)c(=O)n3C)n1 | 113 (≈ 49.9 µg/mL) | 480 | > 10000 | IC50 (BCL-6/NCOR2): 4600 nM
Cn1c(=O)n(C)c2cc(Nc3cc(SCc4ccccc4)ncn3)ccc21 | < 30 | – | – | –
Cn1c(=O)n(CCC(C)(C)O)c2cc(Nc3c(Cl)cncc3Cl)ccc21 | 126 (≈ 49.8 µg/mL) | 37000 | – | –
Cn1c(=O)n(C)c2cc(Nc3ncccc3C#N)ccc21 | 300 (≈ 83.8 µg/mL) | – | – | –
Cn1c(=O)n(CCC(C)(C)O)c2cc(Nc3nc(N4CC5CCC(C4)C5(F)F)ncc3Cl)ccc21 | 22 (≈ 11.2 µg/mL) | 710 | > 10000 | –
Cn1c(=O)n(CCC(C)(C)O)c2cc(Nc3ccnc(Cl)c3C#N)ccc21 | < 30 | – | – | solubility kinetic at 2 h [4]: 25 µM (≈ 9.65 µg/mL)
Cn1c(=O)n(CCC(C)(C)O)c2cc(Nc3nc(Cl)ncc3Cl)ccc21 | 361 (≈ 143 µg/mL) | – | – | –
Cn1c(=O)n(CCC(C)(C)O)c2cc(Nc3nc(N4CCCC(CO)C4)ncc3Cl)ccc21 (centres undefined) | 442 (≈ 210 µg/mL) | 130 | 450 | logD [6]: 2.1; CLH [5]: 370 µL/min/mg
CCCCn1c(=O)n(C)c2ccc(Nc3ccnc(Cl)c3C#N)cc21 | 53 (≈ 18.9 µg/mL) | 6600 | – | –
Cc1cc(C)n(-c2ncc(Cl)c(Nc3ccc4c(c3)n(CCC(C)(C)O)c(=O)n4C)n2)n1 | 404 (≈ 184 µg/mL) | 260 | > 10000 | IC50 (BCL-6/NCOR2): 1800 nM
Cc1cc(C)n(-c2cc(Nc3ccc4c(c3)n(CCC(C)(C)O)c(=O)n4C)c(Cl)cn2)n1 | 135 (≈ 61.4 µg/mL) | 790 | > 10000 | IC50 (BCL-6/NCOR2): 4600 nM
Cc1ccn(-c2ncc(Cl)c(Nc3ccc4c(c3)n(CCC(C)(C)O)c(=O)n4C)n2)n1 | 253 (≈ 112 µg/mL) | 400 | > 10000 | IC50 (BCL-6/NCOR2): 2500 nM
C[C@@H](O)CCn1c(=O)n(C)c2ccc(Nc3ccnc(Cl)c3C#N)cc21 | 308 (≈ 115 µg/mL) | – | – | –
CCC(C#N)Cn1c(=O)n(C)c2ccc(Nc3ccnc(Cl)c3C#N)cc21 (centres undefined) | < 30 | – | – | solubility kinetic at 2 h [4]: 9.2 µM (≈ 3.5 µg/mL)

Structure (SMILES) | solubility kinetic at 20 h [1] [µM] | IC50 [2] [nM] | DC50 [3] [nM] | also measured
Cn1c(=O)n(CCC(C)(C)O)c2cc(Nc3nc(N4CCCCC4)ncc3Cl)ccc21 | 70 (≈ 31.1 µg/mL) | 1000 | – | –
CCC(O)Cn1c(=O)n(C)c2ccc(Nc3ccnc(Cl)c3C#N)cc21 (racemic) | 298 (≈ 111 µg/mL) | 5400 | – | –
Cn1c(=O)n(CCC(C)(C)O)c2cc(Nc3nc(N4CCCC(C#N)C4)ncc3Cl)ccc21 (centres undefined) | 330 (≈ 155 µg/mL) | 390 | > 10000 | –
Cn1c(=O)n(CCC(C)(C)O)c2cc(Nc3nc(-n4cccn4)ncc3Cl)ccc21 | 146 (≈ 62.5 µg/mL) | 710 | > 10000 | IC50 (BCL-6/NCOR2): 5900 nM
Cn1c(=O)n(CCC(C)(C)O)c2cc(Nc3nc(N4CCC(F)(F)C(CO)C4)ncc3Cl)ccc21 (centres undefined) | 294 (≈ 150 µg/mL) | – | – | GI50 (OCI-Ly1): 500 nM; GI50 (SUD4): 410 nM; logD [6]: 2.5; GI50 (OCI-Ly3): 2900 nM
CC1CN(c2ncc(Cl)c(Nc3ccc4c(c3)n(CCC(C)(C)O)c(=O)n4C)n2)CCC1(F)F (centres undefined) | 24 (≈ 11.9 µg/mL) | 330 | 180 | logD [6]: 3.9; CLH [5]: 66 µL/min/mg
C[C@H](O)CCn1c(=O)n(C)c2ccc(Nc3ccnc(Cl)c3C#N)cc21 | 251 (≈ 93.3 µg/mL) | – | – | –
Cc1nc(C)c(-c2ncc(Cl)c(Nc3ccc4c(c3)n(CCC(C)(C)O)c(=O)n4C)n2)s1 | < 30 | 1400 | > 10000 | –
CSc1ncc(Cl)c(Nc2ccc3c(c2)n(CCC(C)(C)O)c(=O)n3C)n1 | 337 (≈ 137 µg/mL) | 680 | – | –
Cc1ccnn1-c1ncc(Cl)c(Nc2ccc3c(c2)n(CCC(C)(C)O)c(=O)n3C)n1 | 420 (≈ 186 µg/mL) | 430 | > 10000 | IC50 (BCL-6/NCOR2): 2700 nM
CC1CCCN(c2ncc(Cl)c(Nc3ccc4c(c3)n(CCC(C)(C)O)c(=O)n4C)n2)C1 (centres undefined) | 44 (≈ 20.2 µg/mL) | 640 | 520 | logD [6]: 4.2; CLH [5]: 2210 µL/min/mg; IC50 (BCL-6/NCOR2): 13000 nM
CC[C@@H](O)Cn1c(=O)n(C)c2ccc(Nc3ccnc(Cl)c3C#N)cc21 | 307 (≈ 114 µg/mL) | 4500 | – | –
Cn1c(=O)n(CCC(C)(C)O)c2cc(Nc3nc(N4CCC(F)(F)CC4)ncc3Cl)ccc21 | 66 (≈ 31.7 µg/mL) | 310 | – | GI50 (OCI-Ly1): 500 nM; logD [6]: 3.4; CLH [5]: 36 µL/min/mg; GI50 (OCI-Ly3): 2600 nM; DC50 [10]: 180 nM; DC50 [11]: 290 nM
CC[C@H](O)Cn1c(=O)n(C)c2ccc(Nc3ccnc(Cl)c3C#N)cc21 | 313 (≈ 116 µg/mL) | 4600 | – | –
CN(C)c1ncc(Cl)c(Nc2ccc3c(c2)n(CCC(C)(C)O)c(=O)n3C)n1 | 223 (≈ 90.3 µg/mL) | 1200 | – | –
N#Cc1c(NCC2CC2)ccnc1Cl | 300 (≈ 62.3 µg/mL) | – | – | –
Cn1c(=O)n(CCC(C)(C)O)c2cc(Nc3nc(N4C5CCC4CC(F)(F)C5)ncc3Cl)ccc21 | < 30 | – | – | –
C[C@@H]1CN(c2cc(Nc3ccc4c(c3)n(CCC(C)(C)O)c(=O)n4C)c(Cl)cn2)C[C@H](C)O1 | 83 (≈ 39.3 µg/mL) | 930 | – | IC50 (BCL-6/NCOR2): 5000 nM
Cn1c(=O)n(CCC(C)(C)O)c2cc(Nc3ccncc3Cl)ccc21 | 526 (≈ 190 µg/mL) | 990 | – | –
Cn1c(=O)n(C)c2cc(Nc3ccnc(Cl)c3C#N)ccc21 | < 30 | – | – | solubility kinetic at 2 h [4]: 16 µM (≈ 5.02 µg/mL)
COCC1CN(c2ncc(Cl)c(Nc3ccc4c(c3)n(CCC(C)(C)O)c(=O)n4C)n2)CCC1(F)F (centres undefined) | 72 (≈ 37.8 µg/mL) | – | 440 | logD [6]: 3.5; CLH [5]: > 1000 µL/min/mg
Cn1c(=O)n(CCC(C)(C)O)c2cc(Nc3nc(N4CCOCC4)ncc3Cl)ccc21 | 370 (≈ 165 µg/mL) | 270 | – | IC50 (BCL-6/NCOR2): 2300 nM
